Where two headings read alike, the source gives them in different places.
What was measured:
[1] = test system: prostate cancer cell line LNCaP; assay: Bortezomib resistance (proliferation inhibition) assay, LNCaP; type: cell-based, human; settings: compared with other non-myeloma cell lines, 5 days proliferation
Procedure: (§1) Cytotoxicity assays were performed essentially as described previously (16). For myeloma cell lines, some modifications were made due to their slow growth rate, non-adherence to the culture plate and sensitivity to sparse plating. Briefly, cells were seeded at 10,000 per well in 96-well plates in RPMI-1640 without phenol red (which interferes with detection of fluorescence). Bortezomib (Millennium Pharmaceuticals; Johnson & Johnson Pharmaceuticals) was applied in a concentration series along the long plate axis. After 5 days of proliferation, cells were permeabilised in situ by adding 5% by volume of 21 X Triton X-100 buffer (10 mM TrisHCl pH 7.4, 5 mM EDTA, 0.1% Triton X-100) and Sybr I Green (Invitrogen) 1:4000. The lysate was mixed thoroughly with a multi-channel pipette. One cycle of freeze and thaw was performed to ensure complete lysis. The fluorescence, measured on a plate reader (Wallac), was proportional to the number of viable cells at the end point. […]
(§2) Briefly, myeloma cell lines, prostate cancer cell lines and lymphoid cell lines were cultured in RPMI-1640 supplemented with 10% foetal calf serum, 100 units/mL penicillin G and 100 μg/mL streptomycin. […] Quantitation of spliced and unspliced XBP-1 and determination of sensitivity to Bortezomib was carried out as previously described (Examples 1.1, 1.2 and 2.1, respectively).

[2] = test system: H929 myeloma cells; assay: Bortezomib resistance (proliferation inhibition) assay, H929; type: cell-based, human
Procedure: Cytotoxicity assays were performed essentially as described previously (16). For myeloma cell lines, some modifications were made due to their slow growth rate, non-adherence to the culture plate and sensitivity to sparse plating. Briefly, cells were seeded at 10,000 per well in 96-well plates in RPMI-1640 without phenol red (which interferes with detection of fluorescence). Bortezomib (Millennium Pharmaceuticals; Johnson & Johnson Pharmaceuticals) was applied in a concentration series along the long plate axis. After 5 days of proliferation, cells were permeabilised in situ by adding 5% by volume of 21 X Triton X-100 buffer (10 mM TrisHCl pH 7.4, 5 mM EDTA, 0.1% Triton X-100) and Sybr I Green (Invitrogen) 1:4000. The lysate was mixed thoroughly with a multi-channel pipette. One cycle of freeze and thaw was performed to ensure complete lysis. The fluorescence, measured on a plate reader (Wallac), was proportional to the number of viable cells at the end point. The IC50 was determined as the concentration of drug that inhibited proliferation to 50% of the untreated controls (see FIG. 5A-5E).
(§3) H929 and RPMI8226 myeloma cells were transduced with virus as follows. […] Total XBP-1 and sensitivity to Bortezomib was determined as previously described (Example 1.1 and Example 2.1, respectively).

[3] = test system: RPMI8226 myeloma cells; assay: Bortezomib resistance (proliferation inhibition) assay, RPMI8226; type: cell-based, human
Procedure: as §1, with “After 5 days of proliferation, cells were permeabilised in situ by adding 5% by volume of 21 X Triton X-100 buffer (10 mM TrisHCl pH 7.4, 5 mM EDTA, 0.1% Triton X-100) and Sybr I Green (Invitrogen) 1:4000. The lysate was mixed thoroughly with a multi-channel pipette. One cycle of freeze and thaw was performed to ensure complete lysis.” left out
as §2, §3

[4] = test system: relapsed myeloma; settings: patients with relapsed myeloma, randomised trial, cited from earlier work
[5] = test system: refractory myeloma; settings: cited from earlier work
[6] = target: P-glycoprotein (Homo sapiens, UniProt P08183); settings: cited from earlier work
[7] = test system: myeloma cells; settings: direct inhibition of NF-κB; cited from earlier work
[8] = test system: myeloma; settings: phase III randomised control trial; cited from earlier work
[9] = target: P-glycoprotein (P-gp) (Homo sapiens, UniProt P08183); settings: cyclosporin D derivative; cited from earlier work
[10] = test system: relapsed myeloma; settings: single agent, relapsed disease; cited from earlier work
[11] = test system: myeloma; settings: cited from earlier work

P-glycoprotein (P-gp), sequence (P08183 whole entry): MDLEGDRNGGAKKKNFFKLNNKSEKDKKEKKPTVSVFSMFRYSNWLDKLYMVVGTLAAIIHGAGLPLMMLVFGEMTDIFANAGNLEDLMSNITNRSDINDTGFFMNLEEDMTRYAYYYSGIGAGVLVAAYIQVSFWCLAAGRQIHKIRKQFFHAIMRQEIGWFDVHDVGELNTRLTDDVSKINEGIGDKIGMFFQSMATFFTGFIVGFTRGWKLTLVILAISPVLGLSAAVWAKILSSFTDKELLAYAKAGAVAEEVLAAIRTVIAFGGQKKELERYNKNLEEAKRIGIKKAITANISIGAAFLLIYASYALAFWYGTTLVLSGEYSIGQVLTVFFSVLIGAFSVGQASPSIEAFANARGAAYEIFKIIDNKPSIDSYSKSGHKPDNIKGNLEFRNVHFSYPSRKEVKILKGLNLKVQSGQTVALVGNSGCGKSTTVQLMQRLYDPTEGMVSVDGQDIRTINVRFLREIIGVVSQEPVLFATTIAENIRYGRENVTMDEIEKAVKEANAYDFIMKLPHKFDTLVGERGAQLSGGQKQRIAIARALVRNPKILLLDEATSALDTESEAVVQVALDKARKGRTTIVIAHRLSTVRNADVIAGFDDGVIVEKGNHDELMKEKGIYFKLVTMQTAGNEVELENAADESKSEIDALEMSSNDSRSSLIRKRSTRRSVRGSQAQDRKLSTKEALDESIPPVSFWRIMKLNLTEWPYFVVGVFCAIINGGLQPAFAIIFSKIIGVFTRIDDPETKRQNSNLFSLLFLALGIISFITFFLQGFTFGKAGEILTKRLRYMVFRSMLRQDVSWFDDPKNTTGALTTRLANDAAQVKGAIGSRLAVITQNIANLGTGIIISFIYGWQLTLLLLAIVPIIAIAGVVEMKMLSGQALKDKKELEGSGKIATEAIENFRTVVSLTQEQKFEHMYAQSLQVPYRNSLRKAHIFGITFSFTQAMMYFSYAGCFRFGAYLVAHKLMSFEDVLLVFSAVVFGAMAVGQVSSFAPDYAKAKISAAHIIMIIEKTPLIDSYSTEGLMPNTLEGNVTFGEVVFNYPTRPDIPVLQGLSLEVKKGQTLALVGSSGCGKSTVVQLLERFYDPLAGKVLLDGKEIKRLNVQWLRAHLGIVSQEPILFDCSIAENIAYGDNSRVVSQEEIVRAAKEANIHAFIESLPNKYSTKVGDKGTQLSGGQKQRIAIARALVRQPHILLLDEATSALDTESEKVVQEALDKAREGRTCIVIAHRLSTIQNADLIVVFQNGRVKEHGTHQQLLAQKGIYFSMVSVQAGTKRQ
P-glycoprotein, sequence (P08183 whole entry): as above

## CC(C)C[C@H](NC(=O)[C@H](Cc1ccccc1)NC(=O)c1cnccn1)B(O)O [Bortezomib]
[1]
  sensitivity of cell line to Bortezomib (rank): most sensitive to Bortezomib of the non-myeloma cell lines
[2]; H929 cells, XBP-1 knockdown
  change of sensitivity to Bortezomib after shRNA knockdown of XBP-1: decrease in sensitivity to Bortezomib but the change was modest
[2]; myeloma cell lines, 5 days proliferation
  sensitivity of cell line to Bortezomib (rank): most sensitive to Bortezomib
[3]; RPMI8226 cells, XBP-1 knockdown
  change of sensitivity to Bortezomib after shRNA knockdown of XBP-1: No such effect on sensitivity to Bortezomib
[3]; RPMI8226 transfectants vs vector control
  change of sensitivity to Bortezomib after overexpression of spliced or unspliced XBP-1 cDNA: only a small effect on sensitivity
[4]; p<0.001
  overall response rate: 38%
[4]
  complete response rate: 6%
  one-year survival rate: 80%
[5]; a significant proportion of patients
  side effects: fatigue, nausea, diarrhoea, thrombocytopenia, anaemia and peripheral neuropathy
[5]; refractory cases, phase I and II trials
  overall response rate: ~30%
[5]; relapsed patients
  primary resistance, proportion of relapsed patients: about 60%
[6]
  P-glycoprotein substrate: not a significant P-glycoprotein substrate

## O=C(Nc1cc(Cl)cc2c1[nH]c1cnccc12)c1cccnc1 [PS-1145]
[7]
  inhibition of proliferation of myeloma cells: insufficient to completely inhibit the proliferation

## C/C=C/C[C@@H](C)C(=O)[C@H]1C(=O)N[C@@H](C(C)C)C(=O)N(C)CC(=O)N(C)[C@@H](CC(C)C)C(=O)N[C@@H](C(C)C)C(=O)N(C)[C@@H](CC(C)C)C(=O)N[C@@H](C)C(=O)N[C@H](C)C(=O)N(C)[C@@H](CC(C)C)C(=O)N(C)[C@@H](CC(C)C)C(=O)N(C)[C@@H](C(C)C)C(=O)N1C [Valspodar]
[8]
  toxicity on addition of the P-gp inhibitor: increased toxicity
[9]
  potency of inhibitory activity on P-gp (relative): 5 times

## O=C1CCC(N2C(=O)c3ccccc3C2=O)C(=O)N1 (stereo not drawn) [thalidomide]
[10]
  overall response rate: ~32%
  patients with at least very good partial response or complete response: approximately 10%

## interferon-α
[11]
  effect of maintenance therapy on response and survival: marginal effect in terms of prolonging response and survival
